Patent publication US20220313873A1, “COLORED BIOLOGIC WOUND TREATMENT PROVIDING HEALING PROGRESS MONITORING” (KERECIS HF, priority 2021, published 2022)

How the values were obtained:
cells = assay: Preliminary cytotoxicity tests; settings: preliminary tests by the inventors
[1] = Stability of coloring agents in decellularization (Decell) solution; assay type: physicochemical; settings: 0.5 mL of 1% w/v color solution in 50 mL Decell solution
Procedure: A first set of experiments were conducted to determine the stability of various coloring agents within a decellularization solution (termed herein as “Decell solution”) used in the processing/manufacturing of Kerecis™ fish-skin-derived cellular scaffold products, which is made from the minimally processed skin of wild-caught Atlantic cod, as described in U.S. Pat. No. 8,613,957.
The Decell solution was prepared in accordance with EBL M222. 50 mL of the Decell solution was aliquoted into each of 7 separate plastic tubes securable with a respective lid. A first tube included only the Decell solution, acting as a control. A 0.5 mL aliquot of each of the 6 prepared color solutions was separately added to a corresponding tube containing 50 mL of Decell solution. Any reaction or visible change of the mixture was monitored over time.
The solutions in respective tubes with the respective coloring agents were monitored and documented by photographs at the start of the experiment, after 30 minutes, and after 24 hours of incubation.

Row | Structure (SMILES) | cytotoxicity (cells) | color of the Decell solution ([1]; after 24 hours) | fading of color in Decell solution ([1]; first 20 minutes)
1 | CN(C)c1ccc2nc3ccc(N(C)C)cc3[s+]c2c1.[Cl-] [Methylene Blue, methylene blue] | did not cause any cytotoxicity concern | had all turned white or nearly white except the Decell solution with the added Methylene Blue | notable exception
2 | CN(C)c1ccc(C(=C2C=CC(=[N+](C)C)C=C2)c2ccc(N(C)C)cc2)cc1 [GV, gentian violet] | did not cause any cytotoxicity concern |  | 
